Measured values taken from patent US7250413B2, “C-25 carbamate rifamycin derivatives with activity against drug-resistant microbes” (Cumbre Pharmaceuticals Inc., priority 2004, dated 2007).
Values after ≈ are worked out from the molar mass of the structure shown.

Legend:
Experiment in all cases: MIC, microbroth dilution
Type in all cases: cell-based
[1] = tested on: Mycobacterium smegmatis ATCC700084; conditions: Mycolicibacterium smegmatis, ATCC700084; rifS; Middlebrook Broth plus ADC Enrichment, 37° C.; read-out: MIC
Protocol: (§1) Representative compounds were assayed for antimicrobial activity as follows: Minimum Inhibitory Concentrations (“MICs”) were determined by the microbroth dilution method as per NCCLS guidelines (National Committee for Clinical Laboratory Standards, 2000), except that all growth incubations were conducted at 37° C. Bacterial cultures were tested in the following bacteriological media: S. aureus, S. epidermidis, and E. coli in Cation-Adjusted Mueller-Hinton Broth, S. pneumoniae in THY Broth supplemented with 1 mg/mL catalase under 5% CO2 atmosphere, S. pyogenes in THY Broth, E. faecalis in BHI Broth, H. influenzae in BHI Broth supplemented with 0.75 μL of 1 mg/mL NAD and 150 μL of 1 mg/ml hematin per 5 mL, and M smegmatis in Middlebrook Broth plus ADC Enrichment.

[2] = tested on: Staphylococcus aureus ATCC29213; conditions: rifS, Cation-Adjusted Mueller-Hinton Broth, 37° C., read-out: MIC
Protocol: as §1

[3] = tested on: Enterococcus faecalis ATCC29212; conditions: rifS, BHI Broth, 37° C., read-out: MIC
Protocol: as §1

Row | SMILES | MIC [1] | MIC [2] | MIC [3]
1 | CNC(=O)O[C@H]1[C@H](C)[C@H](O)[C@H](C)[C@@H](O)[C@@H](C)/C=C/C=C(/C)C(=O)NC2=C(N3CCOCC3)C(=O)c3c(c(O)c(C)c4c3C(=O)[C@@](C)(O/C=C/[C@H](OC)[C@H]1C)O4)C2=O [Example 21, 25-O-Desacetyl-(carbonyl-methylamino) 3-morpholino rifamycin S] | 0.063 to 31 µg/mL | 0.002 to 1.95 µg/mL (≈ 0.00251 to 2.45 µM) | 0.25 to 62 µg/mL (≈ 0.314 to 77.9 µM)
2 | CO[C@H]1/C=C/O[C@@]2(C)Oc3c(C)c(O)c4c(c3C2=O)C(=O)C(N2CCOCC2)=C(NC(=O)/C(C)=C\C=C\[C@H](C)[C@H](O)[C@@H](C)[C@@H](O)[C@@H](C)[C@H](OC(=O)NCc2ccc(Cl)cc2)[C@@H]1C)C4=O [Example 22, 25-O-Desacetyl-(carbonyl-4-chlorobenzyl) 3-morpholino rifamycin S] | 0.063 to 31 µg/mL | 0.002 to 1.95 µg/mL (≈ 0.00221 to 2.15 µM) | 0.25 to 62 µg/mL (≈ 0.276 to 68.4 µM)
3 | CO[C@H]1/C=C/O[C@@]2(C)Oc3c(C)c(O)c4c(c3C2=O)C(=O)C(N2CCOCC2)=C(NC(=O)/C(C)=C\C=C\[C@H](C)[C@H](O)[C@@H](C)[C@@H](O)[C@@H](C)[C@H](OC(=O)NCCCc2ccccc2)[C@@H]1C)C4=O [Example 24, 25-O-Desacetyl-(carbonyl-3-phenylpropylamino) 3-morpholino rifamycin S] | 0.063 to 31 µg/mL | 0.002 to 1.95 µg/mL (≈ 0.00222 to 2.17 µM) | 0.25 to 62 µg/mL (≈ 0.278 to 68.9 µM)
4 | CO[C@H]1/C=C/O[C@@]2(C)Oc3c(C)c(O)c4c(c3C2=O)C(=O)C(N2CCOCC2)=C(NC(=O)/C(C)=C\C=C\[C@H](C)[C@H](O)[C@@H](C)[C@@H](O)[C@@H](C)[C@H](OC(=O)NCCc2ccccc2)[C@@H]1C)C4=O [Example 25, 25-O-Desacetyl-(carbonyl-3-phenylethylamino) 3-morpholino rifamycin S] | 0.063 to 31 µg/mL | 0.002 to 1.95 µg/mL (≈ 0.00226 to 2.2 µM) | 0.25 to 62 µg/mL (≈ 0.282 to 70 µM)
5 | COc1ccc(CNC(=O)O[C@H]2[C@H](C)[C@H](O)[C@H](C)[C@@H](O)[C@@H](C)/C=C/C=C(/C)C(=O)NC3=C(N4CCOCC4)C(=O)c4c(c(O)c(C)c5c4C(=O)[C@@](C)(O/C=C/[C@H](OC)[C@H]2C)O5)C3=O)cc1 [Example 26, 25-O-Desacetyl-(carbonyl-4-methoxybenzylamino) 3-morpholino rifamycin S] | 0.063 to 31 µg/mL | 0.002 to 1.95 µg/mL (≈ 0.00222 to 2.16 µM) | 0.25 to 62 µg/mL (≈ 0.277 to 68.7 µM)
6 | COc1c(N2CCN(C(=O)O[C@H]3[C@H](C)[C@H](O)[C@H](C)[C@@H](O)[C@@H](C)/C=C/C=C(/C)C(=O)NC4=C(N5CCOCC5)C(=O)c5c(c(O)c(C)c6c5C(=O)[C@@](C)(O/C=C/[C@H](OC)[C@H]3C)O6)C4=O)C(C)C2)c(F)cc2c(=O)c(C(=O)O)cn(C3CC3)c12 (stereo partly drawn) [Example 28, 25-O-Desacetyl-(carbonyl-1-cyclopropyl-6-fluoro-8-methoxy-7-(3-methyl-piperazin-1-yl)-4-oxo-1,4-dihydro-quinoline-3-carboxylic acid) 3-morpholino rifamycin S] | 0.063 to 31 µg/mL | 0.002 to 1.95 µg/mL (≈ 0.00175 to 1.71 µM) | 0.25 to 62 µg/mL (≈ 0.219 to 54.4 µM)
7 | CCN1CC2CN(C(=O)O[C@H]3[C@H](C)[C@H](O)[C@H](C)[C@@H](O)[C@@H](C)/C=C/C=C(/C)C(=O)NC4=C(N5CCOCC5)C(=O)c5c(c(O)c(C)c6c5C(=O)[C@@](C)(O/C=C/[C@H](OC)[C@H]3C)O6)C4=O)CC2C1 (stereo partly drawn) [Example 29, 25-O-Desacetyl-(carbonyl-2-ethyl-octahydro-pyrrolo[3,4-c]pyrrole) 3-morpholino rifamycin S] | 0.063 to 31 µg/mL | 0.002 to 1.95 µg/mL (≈ 0.00221 to 2.15 µM) | 0.25 to 62 µg/mL (≈ 0.276 to 68.5 µM)
8 | CO[C@H]1/C=C/O[C@@]2(C)Oc3c(C)c(O)c4c(c3C2=O)C(=O)C(N2CCOCC2)=C(NC(=O)/C(C)=C\C=C\[C@H](C)[C@H](O)[C@@H](C)[C@@H](O)[C@@H](C)[C@H](OC(=O)NCCN(C)C)[C@@H]1C)C4=O [Example 30, 25-O-Desacetyl-(carbonyl-N,N-dimethylethylenediamine) 3-morpholino rifamycin S] | 0.063 to 31 µg/mL | 0.002 to 1.95 µg/mL (≈ 0.00234 to 2.29 µM) | 0.25 to 62 µg/mL (≈ 0.293 to 72.7 µM)
9 | CO[C@H]1/C=C/O[C@@]2(C)Oc3c(C)c(O)c4c(c3C2=O)C(=O)C(N2CCOCC2)=C(NC(=O)/C(C)=C\C=C\[C@H](C)[C@H](O)[C@@H](C)[C@@H](O)[C@@H](C)[C@H](OC(=O)NCCC2CCCN2C)[C@@H]1C)C4=O (stereo partly drawn) [Example 31, 25-O-Desacetyl-(carbonyl-2-(1-methyl-pyrrolidin-2-yl)-ethylamine) 3-morpholino rifamycin S] | 0.063 to 31 µg/mL | 0.002 to 1.95 µg/mL (≈ 0.00224 to 2.18 µM) | 0.25 to 62 µg/mL (≈ 0.28 to 69.4 µM)
10 | CO[C@H]1/C=C/O[C@@]2(C)Oc3c(C)c(O)c4c(c3C2=O)C(=O)C(N2CCOCC2)=C(NC(=O)/C(C)=C\C=C\[C@H](C)[C@H](O)[C@@H](C)[C@@H](O)[C@@H](C)[C@H](OC(=O)NCCN2CCCC2)[C@@H]1C)C4=O [Example 32, 25-O-Desacetyl-(carbonyl-2-Pyrrolidin-1-yl-ethylamine) 3-morpholino rifamycin S] | 0.063 to 31 µg/mL | 0.002 to 1.95 µg/mL (≈ 0.00228 to 2.22 µM) | 0.25 to 62 µg/mL (≈ 0.284 to 70.5 µM)
11 | CO[C@H]1/C=C/O[C@@]2(C)Oc3c(C)c(O)c4c(c3C2=O)C(=O)C(N2CCOCC2)=C(NC(=O)/C(C)=C\C=C\[C@H](C)[C@H](O)[C@@H](C)[C@@H](O)[C@@H](C)[C@H](OC(=O)NC2CCN(Cc3ccccc3)CC2)[C@@H]1C)C4=O [Example 33, 25-O-Desacetyl-(carbonyl-1-benzyl-piperidin-4-ylamine) 3-morpholino rifamycin S] | 0.063 to 31 µg/mL | 0.002 to 1.95 µg/mL (≈ 0.00209 to 2.04 µM) | 0.25 to 62 µg/mL (≈ 0.262 to 64.9 µM)
12 | CO[C@H]1/C=C/O[C@@]2(C)Oc3c(C)c(O)c4c(c3C2=O)C(=O)C(N2CCOCC2)=C(NC(=O)/C(C)=C\C=C\[C@H](C)[C@H](O)[C@@H](C)[C@@H](O)[C@@H](C)[C@H](OC(=O)NCCCCc2ccccc2)[C@@H]1C)C4=O [Example 34, 25-O-Desacetyl-(carbonyl-4-phenyl-butylamine) 3-morpholino rifamycin S] | 0.063 to 31 µg/mL | 0.002 to 1.95 µg/mL (≈ 0.00219 to 2.13 µM) | 0.25 to 62 µg/mL (≈ 0.274 to 67.8 µM)
13 | CO[C@H]1/C=C/O[C@@]2(C)Oc3c(C)c(O)c4c(c3C2=O)C(=O)C(N2CCOCC2)=C(NC(=O)/C(C)=C\C=C\[C@H](C)[C@H](O)[C@@H](C)[C@@H](O)[C@@H](C)[C@H](OC(=O)N2CCC(N3CCCCC3)CC2)[C@@H]1C)C4=O [Example 35, 25-O-Desacetyl-(carbonyl-[1,4′]bipiperidinyl) 3-morpholino rifamycin S] | 0.063 to 31 µg/mL | 0.002 to 1.95 µg/mL (≈ 0.00214 to 2.09 µM) | 0.25 to 62 µg/mL (≈ 0.268 to 66.4 µM)
14 | CO[C@H]1/C=C/O[C@@]2(C)Oc3c(C)c(O)c4c(c3C2=O)C(=O)C(N2CCOCC2)=C(NC(=O)/C(C)=C\C=C\[C@H](C)[C@H](O)[C@@H](C)[C@@H](O)[C@@H](C)[C@H](OC(=O)NCc2ccc(N(C)C)cc2)[C@@H]1C)C4=O [Example 36, 25-O-Desacetyl-(carbonyl-(4-aminomethyl-phenyl)-dimethyl-amine) 3-morpholino rifamycin S] | 0.063 to 31 µg/mL | 0.002 to 1.95 µg/mL (≈ 0.00219 to 2.13 µM) | 0.25 to 62 µg/mL (≈ 0.273 to 67.8 µM)
15 | CO[C@H]1/C=C/O[C@@]2(C)Oc3c(C)c(O)c4c(c3C2=O)C(=O)C(N2CCOCC2)=C(NC(=O)/C(C)=C\C=C\[C@H](C)[C@H](O)[C@@H](C)[C@@H](O)[C@@H](C)[C@H](OC(=O)N(CCN(C)C)Cc2ccccc2)[C@@H]1C)C4=O [Example 37, 25-O-Desacetyl-(carbonyl-N′-benzyl-N,N-dimethyl-ethane-1,2-diamino) 3-morpholino rifamycin S] | 0.063 to 31 µg/mL | 0.002 to 1.95 µg/mL (≈ 0.00212 to 2.07 µM) | 0.25 to 62 µg/mL (≈ 0.265 to 65.7 µM)
16 | CO[C@H]1/C=C/O[C@@]2(C)Oc3c(C)c(O)c4c(c3C2=O)C(=O)C(N2CCOCC2)=C(NC(=O)/C(C)=C\C=C\[C@H](C)[C@H](O)[C@@H](C)[C@@H](O)[C@@H](C)[C@H](OC(=O)NCCc2ccc(Cl)cc2)[C@@H]1C)C4=O [Example 38, 25-O-Desacetyl-(carbonyl-2-(4-Chloro-phenyl)-ethylamine) 3-morpholino rifamycin S] | 0.063 to 31 µg/mL | 0.002 to 1.95 µg/mL (≈ 0.00217 to 2.12 µM) | 0.25 to 62 µg/mL (≈ 0.272 to 67.4 µM)
17 | CO[C@H]1/C=C/O[C@@]2(C)Oc3c(C)c(O)c4c(c3C2=O)C(=O)C(N2CCOCC2)=C(NC(=O)/C(C)=C\C=C\[C@H](C)[C@H](O)[C@@H](C)[C@@H](O)[C@@H](C)[C@H](OC(=O)NCc2cccc(Cl)c2)[C@@H]1C)C4=O [Example 39, 25-O-Desacetyl-(carbonyl-3-chloro-benzylamine) 3-morpholino rifamycin S] | 0.063 to 31 µg/mL | 0.002 to 1.95 µg/mL (≈ 0.00221 to 2.15 µM) | 0.25 to 62 µg/mL (≈ 0.276 to 68.4 µM)
18 | CO[C@H]1/C=C/O[C@@]2(C)Oc3c(C)c(O)c4c(c3C2=O)C(=O)C(N2CCOCC2)=C(NC(=O)/C(C)=C\C=C\[C@H](C)[C@H](O)[C@@H](C)[C@@H](O)[C@@H](C)[C@H](OC(=O)NCc2ccc([N+](=O)[O-])cc2)[C@@H]1C)C4=O [Example 40, 25-O-Desacetyl-(carbonyl-4-nitro-benzylamine) 3-morpholino rifamycin S] | 0.063 to 31 µg/mL | 0.002 to 1.95 µg/mL (≈ 0.00218 to 2.13 µM) | 0.25 to 62 µg/mL (≈ 0.273 to 67.6 µM)
19 | CO[C@H]1/C=C/O[C@@]2(C)Oc3c(C)c(O)c4c(c3C2=O)C(=O)C(N2CCOCC2)=C(NC(=O)/C(C)=C\C=C\[C@H](C)[C@H](O)[C@@H](C)[C@@H](O)[C@@H](C)[C@H](OC(=O)NCc2cnc3ccccc3c2)[C@@H]1C)C4=O [Example 41, 25-O-Desacetyl-(carbonyl-N-quinolin-3-yl-methylamino) 3-morpholino rifamycin S] | 0.063 to 31 µg/mL | 0.002 to 1.95 µg/mL (≈ 0.00217 to 2.11 µM) | 0.25 to 62 µg/mL (≈ 0.271 to 67.2 µM)
20 | C#CCNC(=O)O[C@H]1[C@H](C)[C@H](O)[C@H](C)[C@@H](O)[C@@H](C)/C=C/C=C(/C)C(=O)NC2=C(N3CCOCC3)C(=O)c3c(c(O)c(C)c4c3C(=O)[C@@](C)(O/C=C/[C@H](OC)[C@H]1C)O4)C2=O [Example 43, 25-O-Desacetyl-(carbonyl-prop-2-ynylamino) 3-morpholino rifamycin S] | 0.063 to 31 µg/mL | 0.002 to 1.95 µg/mL (≈ 0.00244 to 2.38 µM) | 0.25 to 62 µg/mL (≈ 0.305 to 75.6 µM)
